From patent US7514450B2, “Azabicyclic aryl derivatives” (NeuroSearch A/S, priority 2004, dated 2009)
pIC50: −log10 of the molar value. Counter-ions that a name gives are not always drawn.

Target: T1, α7-subtype of nicotinic receptors (Rattus norvegicus, UniProt Q05941)
T1 construct: Cerebral cortices from male Wistar rats (150-250 g) are homogenised; from tissue; host or cells: rat cerebral cortex membrane homogenate
Assay: In vitro inhibition of 3H-α-bungarotoxine binding in rat brain
Details: rat cerebral cortex homogenate; 3H-α-bungarotoxine 2 nM; 2 hours at 37° C

T1 sequence (Q05941 23-502): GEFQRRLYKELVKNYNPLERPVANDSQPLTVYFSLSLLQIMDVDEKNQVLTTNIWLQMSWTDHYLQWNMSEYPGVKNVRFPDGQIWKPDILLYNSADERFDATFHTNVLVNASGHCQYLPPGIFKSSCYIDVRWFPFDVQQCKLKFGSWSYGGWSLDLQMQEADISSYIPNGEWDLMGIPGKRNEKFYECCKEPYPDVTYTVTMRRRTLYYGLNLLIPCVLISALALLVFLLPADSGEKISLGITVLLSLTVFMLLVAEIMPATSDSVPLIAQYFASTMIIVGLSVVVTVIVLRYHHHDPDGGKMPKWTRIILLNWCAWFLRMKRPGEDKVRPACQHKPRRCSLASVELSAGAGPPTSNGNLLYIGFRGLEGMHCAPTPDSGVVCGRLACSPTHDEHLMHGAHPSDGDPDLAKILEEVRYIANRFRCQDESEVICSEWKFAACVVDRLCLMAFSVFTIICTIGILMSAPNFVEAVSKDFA

**Q.** How did the pIC50 turn out when `O=C(Nc1ccc(-c2ccc(C(=O)NC3CN4CCC3CC4)o2)cc1)c1ccccc1` (racemic) [Compound 1, (±)5-(4-Benzoylamino-phenyl)-furan-2-carboxylic acid(1-aza-bicyclo[2.2.2]oct-3-yl)-amide hydrochloric acid salt] was run?
**A.** 7.10
